Reference: the kinase profiling compilation of Christmann-Franck et al. (2016)
“And” between values parts separate entries of the source, which are not always exact repeats. Equal entries are not always repeated.

Legend:
Test in all cases: radiometric filter-binding kinase assay, Kinaseprofiler
[1] = biological target: CDK3 CCNE1 (human) (UniProt Q00526+P24864); conditions: compound 1.0 µM; ATP 200 µM
[2] = biological target: JAK3 JH1 catalytic (human) (UniProt P52333); conditions: compound 1.0 µM; ATP 10 µM
[3] = biological target: WNK2 (human) (UniProt Q9Y3S1); conditions: compound 1.0 µM; ATP 200 µM
[4] = biological target: FGFR2 (human) (UniProt P21802); conditions: compound 1.0 µM; ATP 90 µM
[5] = biological target: CSNK1D (human) (UniProt P48730); conditions: compound 1.0 µM; ATP 70 µM
[6] = biological target: CSNK2A2 (human) (UniProt P19784); conditions: compound 1.0 µM; ATP 10 µM
[7] = biological target: TBK1 (human) (UniProt Q9UHD2); conditions: compound 1.0 µM; ATP 155 µM
[8] = biological target: PAK6 (human) (UniProt Q9NQU5); conditions: compound 1.0 µM; ATP 10 µM
[9] = test system: AKT1 (human), P31749 [S478G]; conditions: compound 1.0 µM; ATP 155 µM
[10] = biological target: KIT (human) (UniProt P10721); conditions: compound 1.0 µM; ATP 200 µM
[11] = biological target: EPHA5 (human) (UniProt P54756); conditions: compound 1.0 µM; ATP 10 µM
[12] = test system: AURKA (human), O14965 [I31F]; conditions: compound 1.0 µM; ATP 15 µM
[13] = biological target: ITK (human) (UniProt Q08881); conditions: compound 1.0 µM; ATP 200 µM
[14] = biological target: RET (human) (UniProt P07949); conditions: compound 1.0 µM; ATP 70 µM
[15] = biological target: SRPK1 (human) (UniProt Q96SB4); conditions: compound 1.0 µM; ATP 10 µM
[16] = biological target: CDK7 CCNH MNAT1 (human) (UniProt P50613+P51948+P51946); conditions: compound 1.0 µM; ATP 90 µM
[17] = biological target: PLK3 (human) (UniProt Q9H4B4); conditions: compound 1.0 µM; ATP 70 µM
[18] = biological target: FER (human) (UniProt P16591); conditions: compound 1.0 µM; ATP 70 µM
[19] = biological target: STK33 (human) (UniProt Q9BYT3); conditions: compound 1.0 µM; ATP 155 µM
[20] = biological target: BRSK1 (human) (UniProt Q8TDC3); conditions: compound 1.0 µM; ATP 200 µM
[21] = test system: MAPKAPK5 (human), Q8IW41 [R291E]; conditions: compound 1.0 µM; ATP 15 µM
[22] = test system: RPS6KB1 (human), P23443 [T412E]; conditions: compound 1.0 µM; ATP 15 µM
[23] = biological target: CHUK (human) (UniProt O15111); conditions: compound 1.0 µM; ATP 10 µM
[24] = biological target: PRKG1 (human) (UniProt Q13976); conditions: compound 1.0 µM; ATP 90 µM
[25] = biological target: NEK7 (human) (UniProt Q8TDX7); conditions: compound 1.0 µM; ATP 45 µM
[26] = biological target: EPHA7 (human) (UniProt Q15375); conditions: compound 1.0 µM; ATP 90 µM
[27] = biological target: CAMK4 (human) (UniProt Q16566); conditions: compound 1.0 µM; ATP 10 µM
[28] = biological target: DAPK2 (human) (UniProt Q9UIK4); conditions: compound 1.0 µM; ATP 10 µM
[29] = biological target: PLK2 (human) (UniProt Q9NYY3); conditions: compound 1.0 µM; ATP 120 µM
[30] = biological target: CAMK1 (human) (UniProt Q14012); conditions: compound 1.0 µM; ATP 200 µM
[31] = biological target: NEK2 (human) (UniProt P51955); conditions: compound 1.0 µM; ATP 120 µM
[32] = biological target: CDK9 CCNT1 (human) (UniProt P50750+O60563); conditions: compound 1.0 µM; ATP 45 µM
[33] = biological target: MAPK11 (human) (UniProt Q15759); conditions: compound 1.0 µM; ATP 45 µM
[34] = biological target: MAPKAPK3 (human) (UniProt Q16644); conditions: compound 1.0 µM; ATP 90 µM
[35] = biological target: STK24 (human) (UniProt Q9Y6E0); conditions: compound 1.0 µM; ATP 15 µM
[36] = biological target: DAPK3 (human) (UniProt O43293); conditions: compound 1.0 µM; ATP 15 µM
[37] = biological target: CDK1 CCNB1 (human) (UniProt P06493+P14635); conditions: compound 1.0 µM; ATP 45 µM
[38] = biological target: NLK (human) (UniProt Q9UBE8); conditions: compound 1.0 µM; ATP 200 µM

PRKG1 (human), sequence (Q13976 whole entry, looked up): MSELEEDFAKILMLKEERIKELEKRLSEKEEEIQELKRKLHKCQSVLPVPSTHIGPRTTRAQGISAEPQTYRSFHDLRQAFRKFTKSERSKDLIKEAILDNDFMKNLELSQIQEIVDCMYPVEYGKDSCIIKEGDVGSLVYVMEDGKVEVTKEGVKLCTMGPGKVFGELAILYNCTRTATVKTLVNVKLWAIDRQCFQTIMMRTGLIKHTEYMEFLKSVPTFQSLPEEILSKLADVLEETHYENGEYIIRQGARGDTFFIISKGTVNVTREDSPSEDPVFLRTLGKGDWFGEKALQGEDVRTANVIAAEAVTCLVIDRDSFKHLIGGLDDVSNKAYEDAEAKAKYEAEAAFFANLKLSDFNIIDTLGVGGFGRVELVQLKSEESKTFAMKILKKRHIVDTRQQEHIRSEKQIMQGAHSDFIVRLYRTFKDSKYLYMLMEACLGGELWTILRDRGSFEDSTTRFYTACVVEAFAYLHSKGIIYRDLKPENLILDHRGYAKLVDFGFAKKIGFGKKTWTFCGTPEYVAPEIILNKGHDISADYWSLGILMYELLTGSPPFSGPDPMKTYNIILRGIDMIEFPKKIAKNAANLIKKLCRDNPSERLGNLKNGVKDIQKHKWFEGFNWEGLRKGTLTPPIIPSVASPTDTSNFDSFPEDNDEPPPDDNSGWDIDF
TBK1 (human), sequence (Q9UHD2 whole entry, looked up): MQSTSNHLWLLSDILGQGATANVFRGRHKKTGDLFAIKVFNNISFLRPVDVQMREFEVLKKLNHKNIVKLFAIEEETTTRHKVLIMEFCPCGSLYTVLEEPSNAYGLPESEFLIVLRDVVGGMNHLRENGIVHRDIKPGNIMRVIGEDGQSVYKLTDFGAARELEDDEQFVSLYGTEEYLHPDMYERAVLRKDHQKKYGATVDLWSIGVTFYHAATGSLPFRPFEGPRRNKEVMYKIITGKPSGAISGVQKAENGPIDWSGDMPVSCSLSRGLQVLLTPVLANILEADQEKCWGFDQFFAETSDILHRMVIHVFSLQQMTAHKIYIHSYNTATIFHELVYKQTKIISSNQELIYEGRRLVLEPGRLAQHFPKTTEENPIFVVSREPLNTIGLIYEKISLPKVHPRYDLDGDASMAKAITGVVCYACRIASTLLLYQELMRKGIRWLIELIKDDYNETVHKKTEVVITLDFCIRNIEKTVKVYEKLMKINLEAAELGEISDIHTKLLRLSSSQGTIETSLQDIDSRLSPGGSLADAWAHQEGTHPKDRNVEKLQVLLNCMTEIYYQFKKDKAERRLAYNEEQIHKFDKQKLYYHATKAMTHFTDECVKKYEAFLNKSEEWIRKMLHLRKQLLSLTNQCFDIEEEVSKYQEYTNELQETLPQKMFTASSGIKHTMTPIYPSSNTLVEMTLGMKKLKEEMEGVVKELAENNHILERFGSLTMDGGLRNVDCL
FGFR2 (human), sequence (P21802 whole entry, looked up): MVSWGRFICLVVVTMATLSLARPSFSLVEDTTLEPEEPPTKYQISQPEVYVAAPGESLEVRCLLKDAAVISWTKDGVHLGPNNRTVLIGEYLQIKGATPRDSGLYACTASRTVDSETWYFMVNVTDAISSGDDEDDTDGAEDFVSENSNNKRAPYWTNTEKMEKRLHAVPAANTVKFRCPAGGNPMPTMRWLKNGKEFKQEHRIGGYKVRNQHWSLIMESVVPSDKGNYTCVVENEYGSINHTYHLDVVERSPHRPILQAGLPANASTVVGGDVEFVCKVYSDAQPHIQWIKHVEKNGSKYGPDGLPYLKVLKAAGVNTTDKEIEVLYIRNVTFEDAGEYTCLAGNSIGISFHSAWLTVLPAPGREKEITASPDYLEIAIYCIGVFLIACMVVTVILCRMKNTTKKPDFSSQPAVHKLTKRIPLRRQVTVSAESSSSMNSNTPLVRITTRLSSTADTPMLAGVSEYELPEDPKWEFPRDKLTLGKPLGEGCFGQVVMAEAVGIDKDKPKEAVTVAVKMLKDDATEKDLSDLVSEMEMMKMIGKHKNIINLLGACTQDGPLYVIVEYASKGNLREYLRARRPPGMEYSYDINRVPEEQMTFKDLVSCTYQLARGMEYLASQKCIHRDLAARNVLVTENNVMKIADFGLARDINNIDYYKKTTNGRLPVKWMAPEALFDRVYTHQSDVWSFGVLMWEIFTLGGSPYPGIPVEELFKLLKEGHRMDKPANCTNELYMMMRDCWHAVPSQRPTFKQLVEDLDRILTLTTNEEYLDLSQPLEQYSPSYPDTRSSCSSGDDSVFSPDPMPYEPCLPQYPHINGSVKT
CHUK (human), sequence (O15111 whole entry, looked up): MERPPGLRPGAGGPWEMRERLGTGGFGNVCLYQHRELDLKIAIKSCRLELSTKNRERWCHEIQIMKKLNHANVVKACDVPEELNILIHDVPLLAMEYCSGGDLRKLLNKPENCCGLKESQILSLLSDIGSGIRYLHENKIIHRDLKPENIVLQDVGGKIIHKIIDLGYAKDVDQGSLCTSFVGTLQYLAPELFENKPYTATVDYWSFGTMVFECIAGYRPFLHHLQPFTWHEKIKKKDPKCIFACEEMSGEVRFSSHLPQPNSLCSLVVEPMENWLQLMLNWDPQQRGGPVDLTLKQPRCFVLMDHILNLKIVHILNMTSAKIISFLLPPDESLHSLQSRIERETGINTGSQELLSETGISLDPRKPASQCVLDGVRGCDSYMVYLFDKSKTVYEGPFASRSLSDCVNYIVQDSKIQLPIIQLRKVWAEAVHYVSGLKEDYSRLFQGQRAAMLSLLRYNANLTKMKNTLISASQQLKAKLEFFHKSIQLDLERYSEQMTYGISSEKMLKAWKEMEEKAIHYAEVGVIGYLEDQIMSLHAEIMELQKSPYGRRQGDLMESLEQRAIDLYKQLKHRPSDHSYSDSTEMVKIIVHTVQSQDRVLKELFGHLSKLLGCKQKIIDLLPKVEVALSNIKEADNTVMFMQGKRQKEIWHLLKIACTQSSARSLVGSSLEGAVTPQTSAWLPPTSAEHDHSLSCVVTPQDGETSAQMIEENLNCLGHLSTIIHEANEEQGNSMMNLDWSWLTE
NEK2 (human), sequence (P51955 whole entry, looked up): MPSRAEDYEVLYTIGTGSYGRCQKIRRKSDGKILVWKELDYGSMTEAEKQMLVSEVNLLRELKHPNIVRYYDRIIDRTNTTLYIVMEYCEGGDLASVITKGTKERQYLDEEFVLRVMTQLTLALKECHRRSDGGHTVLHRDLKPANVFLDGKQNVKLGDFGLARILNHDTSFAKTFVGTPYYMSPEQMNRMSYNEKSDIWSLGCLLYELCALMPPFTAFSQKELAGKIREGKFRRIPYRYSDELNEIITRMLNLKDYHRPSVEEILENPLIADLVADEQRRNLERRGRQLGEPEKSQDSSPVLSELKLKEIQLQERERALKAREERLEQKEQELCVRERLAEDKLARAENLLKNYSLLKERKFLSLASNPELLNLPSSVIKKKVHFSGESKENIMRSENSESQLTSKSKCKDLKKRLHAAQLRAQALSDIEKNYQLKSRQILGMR
MAPKAPK5 (human), Q8IW41 [R291E], sequence (Q8IW41 whole entry, looked up, stated change not applied): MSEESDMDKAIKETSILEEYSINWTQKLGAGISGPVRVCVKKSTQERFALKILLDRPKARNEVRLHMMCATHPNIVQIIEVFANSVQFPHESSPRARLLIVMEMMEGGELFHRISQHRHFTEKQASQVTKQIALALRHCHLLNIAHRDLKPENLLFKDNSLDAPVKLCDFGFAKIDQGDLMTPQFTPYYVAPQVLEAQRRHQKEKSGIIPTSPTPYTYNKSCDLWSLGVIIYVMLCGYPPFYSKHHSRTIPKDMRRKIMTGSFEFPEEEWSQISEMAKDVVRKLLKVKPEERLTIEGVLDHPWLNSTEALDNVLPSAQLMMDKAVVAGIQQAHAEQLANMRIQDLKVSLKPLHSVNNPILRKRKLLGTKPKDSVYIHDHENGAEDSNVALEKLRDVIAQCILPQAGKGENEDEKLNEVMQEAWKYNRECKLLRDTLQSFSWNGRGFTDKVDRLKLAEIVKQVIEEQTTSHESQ
CDK3 CCNE1 (human), sequence (P24864 whole entry, looked up): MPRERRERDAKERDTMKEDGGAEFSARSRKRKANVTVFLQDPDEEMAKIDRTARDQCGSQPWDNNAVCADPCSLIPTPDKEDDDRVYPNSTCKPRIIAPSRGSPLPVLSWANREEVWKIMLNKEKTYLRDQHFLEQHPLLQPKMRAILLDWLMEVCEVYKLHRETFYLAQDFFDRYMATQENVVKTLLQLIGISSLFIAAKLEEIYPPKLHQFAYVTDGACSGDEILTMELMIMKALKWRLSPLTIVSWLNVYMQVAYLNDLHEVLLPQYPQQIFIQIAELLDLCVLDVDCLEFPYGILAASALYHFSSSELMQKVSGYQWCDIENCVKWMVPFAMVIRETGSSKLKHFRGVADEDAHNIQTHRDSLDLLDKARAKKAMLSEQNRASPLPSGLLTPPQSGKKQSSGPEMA
CDK3 CCNE1 (human), sequence (Q00526 whole entry, looked up): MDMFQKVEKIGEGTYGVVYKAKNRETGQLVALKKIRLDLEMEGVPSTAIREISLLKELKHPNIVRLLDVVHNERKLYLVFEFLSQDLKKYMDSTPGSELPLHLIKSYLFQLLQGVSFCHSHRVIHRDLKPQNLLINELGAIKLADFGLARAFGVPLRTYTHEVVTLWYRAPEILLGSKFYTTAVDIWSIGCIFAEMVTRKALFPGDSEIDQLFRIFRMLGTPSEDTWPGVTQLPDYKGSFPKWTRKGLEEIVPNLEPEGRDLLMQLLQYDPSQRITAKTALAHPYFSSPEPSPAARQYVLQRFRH
AURKA (human), O14965 [I31F], sequence (O14965 whole entry, looked up, stated change not applied): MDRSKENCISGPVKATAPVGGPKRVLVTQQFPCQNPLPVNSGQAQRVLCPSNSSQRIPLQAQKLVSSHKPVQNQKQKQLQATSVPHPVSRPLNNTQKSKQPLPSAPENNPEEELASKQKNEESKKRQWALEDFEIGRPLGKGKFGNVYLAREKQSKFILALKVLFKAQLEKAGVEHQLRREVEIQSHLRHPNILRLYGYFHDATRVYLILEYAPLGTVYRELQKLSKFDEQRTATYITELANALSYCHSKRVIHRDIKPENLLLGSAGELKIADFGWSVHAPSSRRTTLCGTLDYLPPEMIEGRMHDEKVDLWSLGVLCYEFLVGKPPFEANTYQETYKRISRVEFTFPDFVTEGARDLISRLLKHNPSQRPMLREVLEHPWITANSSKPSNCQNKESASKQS

## CN(C)S(=O)(=O)Nc1ccc2ccc3ncc(-c4cnn(C)c4)cc3c(=O)c2c1
[1]
  residual activity: 100%
[2]
  residual activity: 81%
[3]
  residual activity: 126%
[4]
  residual activity: 12%
[5]
  residual activity: 98%
[6]
  residual activity: 123%
[7]
  residual activity: 93%
[8]
  residual activity: 109%
[9]
  residual activity: 109%
[10]
  residual activity: 78%
[11]
  residual activity: 102%
[12]
  residual activity: 7%
[13]
  residual activity: 18%
[14]
  residual activity: 2%
[15]
  residual activity: 102%
[16]
  residual activity: 101%
[17]
  residual activity: 105%
[18]
  residual activity: 56%
[19]
  residual activity: 90%
[20]
  residual activity: 74%
[21]
  residual activity: 97%
[22]
  residual activity: 81%
[23]
  residual activity: 98%
[24]
  residual activity: 6% and -14%
[25]
  residual activity: 112%
[26]
  residual activity: 101%
[27]
  residual activity: 98%
[28]
  residual activity: 91%
[29]
  residual activity: 58%
[30]
  residual activity: 110%
[31]
  residual activity: 65%
[32]
  residual activity: 107%
[33]
  residual activity: 113%
[34]
  residual activity: 102%
[35]
  residual activity: 102%
[36]
  residual activity: 87%
[37]
  residual activity: 66%
[38]
  residual activity: 103%
